The values that follow come from ChEMBL document CHEMBL1949621, “Fluorocyclines. 1. 7-fluoro-9-pyrrolidinoacetamido-6-demethyl-6-deoxytetracycline: a potent, broad spectrum antibacterial agent” (J Med Chem, 2012).

What all share (format): functional
Assay [1] has as its system Staphylococcus aureus. The experiment in a line: Antibacterial activity against Staphylococcus aureus ATCC 101 29213.
Assay [2] deals with Staphylococcus aureus. The experiment in a line: Antibacterial activity against tetracycline- and methicillin-resistant Staphylococcus aureus 161.
The test system of assay [3] is Staphylococcus aureus. The experiment in a line: microbe, parasite or virus in culture. The note with it: 158.
Assay [4] deals with Enterococcus faecalis. The experiment in a line: Antibacterial activity against Enterococcus faecalis ATCC 103 29212.
Assay [5] relates to Enterococcus faecalis. The experiment in a line: Antibacterial activity against tetracycline-resistant Enterococcus faecalis 159.
Assay [6] deals with Streptococcus pneumoniae. The experiment in a line: microbe, parasite or virus in culture. Particulars: ATCC 106 49619.
Description: Antibacterial activity against Streptococcus pneumoniae ATCC 106 49619
Assay [7] has as its system Streptococcus pneumoniae. The experiment in a line: Antibacterial activity against tetracycline-resistant Streptococcus pneumoniae 160.
For assay [8], the system named is Escherichia coli. The experiment in a line: Antibacterial activity against Escherichia coli ATCC 107 25922.
For assay [9], the system named is Escherichia coli. The experiment in a line: Antibacterial activity against tetracycline-resistant Escherichia coli 155.
For assay [10], the system named is Acinetobacter baumannii. The experiment in a line: Antibacterial activity against Acinetobacter baumannii ATCC 19606 110.
For assay [11], the system named is Pseudomonas aeruginosa. The experiment in a line: Antibacterial activity against Pseudomonas aeruginosa ATCC 111 27853.
Assay [12] relates to Enterobacter cloacae. The experiment in a line: Antibacterial activity against Enterobacter cloacae ATCC 108 13047.
The subject of assay [13] is Klebsiella pneumoniae. The experiment in a line: Antibacterial activity against Klebsiella pneumoniae ATCC 109 13883.
Assay [14] deals with Klebsiella pneumoniae. The experiment in a line: Antibacterial activity against tetracycline-resistant Klebsiella pneumoniae 153.

Each structure is given as a SMILES string. In brackets after ≈: the same amount, converted by molar mass.

As for `CN(C)[C@@H]1C(O)=C(C(N)=O)C(=O)[C@@]2(O)C(O)=C3C(=O)c4c(O)c(NC(=O)CNc5cccnc5)cc(F)c4C[C@H]3C[C@@H]12`, the MIC in assay [1] is 4 µg/mL (≈ 6.88 µM); in assay [2] it was greater than 32 µg/mL; in assay [3], greater than 32 µg/mL; in assay [4], 8 µg/mL (≈ 13.8 µM); in [5], greater than 32 µg/mL; in assay [6], 0.25 µg/mL (≈ 0.43 µM). In addition, the MIC in assay [7] was 2 µg/mL (≈ 3.44 µM); in [8], 16 µg/mL (≈ 27.5 µM); in assay [9] it was greater than 32 µg/mL; in assay [10], greater than 8 µg/mL; in assay [11] it was greater than 32 µg/mL; in assay [12], greater than 32 µg/mL. For the same molecule, the MIC in [13] is 32 µg/mL (≈ 55 µM); in [14], greater than 32 µg/mL.

Regarding `CN(C)[C@@H]1C(O)=C(C(N)=O)C(=O)[C@@]2(O)C(O)=C3C(=O)c4c(O)c(NC(=O)CN5CCOCC5)cc(F)c4C[C@H]3C[C@@H]12`, the MIC in assay [1] was 4 µg/mL (≈ 6.96 µM); in assay [2], 8 µg/mL (≈ 13.9 µM); in assay [3] it was 8 µg/mL (≈ 13.9 µM); in assay [4], 8 µg/mL (≈ 13.9 µM); in assay [5], 8 µg/mL (≈ 13.9 µM); in [6] it was 0.5 µg/mL (≈ 0.87 µM). The MIC in [7] is 1 µg/mL (≈ 1.74 µM); in assay [8], greater than 32 µg/mL; in [9], greater than 32 µg/mL; in assay [10] it was 8 µg/mL (≈ 13.9 µM); in assay [11], greater than 32 µg/mL; in [12], greater than 32 µg/mL. In addition, the MIC in assay [13] and in assay [14] was greater than 32 µg/mL in each case.

Turning to `CN(C)[C@@H]1C(O)=C(C(N)=O)C(=O)[C@@]2(O)C(O)=C3C(=O)c4c(O)c(NC(=O)CNC(C)(C)C)cc(F)c4C[C@H]3C[C@@H]12`, the MIC in assay [1] stood at 0.125 µg/mL (≈ 0.223 µM); in [2], 0.25 µg/mL (≈ 0.446 µM); in assay [3], 0.0625 µg/mL (≈ 0.111 µM); in assay [4], 0.0625 µg/mL (≈ 0.111 µM); in assay [5] it was 0.125 µg/mL (≈ 0.223 µM); in [6] it was 0.0156 µg/mL (≈ 0.0278 µM). The MIC in assay [7] was 0.0156 µg/mL (≈ 0.0278 µM); in [8] it was 0.25 µg/mL (≈ 0.446 µM); in [9], 2 µg/mL (≈ 3.57 µM); in assay [10] it was 0.5 µg/mL (≈ 0.892 µM); in assay [11], 16 µg/mL (≈ 28.5 µM); in [12], 1 µg/mL (≈ 1.78 µM). In addition, the MIC is 1 µg/mL (≈ 1.78 µM) in [13] and 2 µg/mL (≈ 3.57 µM) in assay [14].

With `CCNCC(=O)Nc1cc(F)c2c(c1O)C(=O)C1=C(O)[C@]3(O)C(=O)C(C(N)=O)=C(O)[C@@H](N(C)C)[C@@H]3C[C@@H]1C2`, the MIC is 0.0625 µg/mL (≈ 0.117 µM) in assay [1]; 0.25 µg/mL (≈ 0.469 µM) in assay [2]; 1 µg/mL (≈ 1.88 µM) in assay [3]; 0.0625 µg/mL (≈ 0.117 µM) in assay [4]; 0.125 µg/mL (≈ 0.235 µM) in [5]; 0.0156 µg/mL (≈ 0.0293 µM) in assay [6]. Besides, the MIC is 0.0156 µg/mL (≈ 0.0293 µM) in [7]; 0.25 µg/mL (≈ 0.469 µM) in assay [8]; 16 µg/mL (≈ 30 µM) in [9]; 2 µg/mL (≈ 3.76 µM) in assay [10]; 8 µg/mL (≈ 15 µM) in assay [11]; 0.5 µg/mL (≈ 0.939 µM) in assay [12]. In addition, the MIC came to 1 µg/mL (≈ 1.88 µM) in assay [13] and 8 µg/mL (≈ 15 µM) in [14].

With `COC[C@@H]1CCCN1CC(=O)Nc1cc(F)c2c(c1O)C(=O)C1=C(O)[C@]3(O)C(=O)C(C(N)=O)=C(O)[C@@H](N(C)C)[C@@H]3C[C@@H]1C2`, the MIC worked out at 1 µg/mL (≈ 1.66 µM) in assay [1]; 2 µg/mL (≈ 3.32 µM) in [2]; 1 µg/mL (≈ 1.66 µM) in assay [3]; 1 µg/mL (≈ 1.66 µM) in assay [4]; 2 µg/mL (≈ 3.32 µM) in assay [5]; 0.125 µg/mL (≈ 0.207 µM) in assay [6]. Further, the MIC in assay [7] is 0.125 µg/mL (≈ 0.207 µM); in [8], 4 µg/mL (≈ 6.64 µM); in assay [9], 16 µg/mL (≈ 26.6 µM); in assay [10], 0.5 µg/mL (≈ 0.83 µM); in assay [11], greater than 32 µg/mL; in assay [12], 16 µg/mL (≈ 26.6 µM). The MIC in [13] came to 8 µg/mL (≈ 13.3 µM); in assay [14], 16 µg/mL (≈ 26.6 µM).

For `CN(C)[C@@H]1C(O)=C(C(N)=O)C(=O)[C@@]2(O)C(O)=C3C(=O)c4c(O)c(NC(=O)CN5CC[C@H](F)C5)cc(F)c4C[C@H]3C[C@@H]12`, the MIC is 0.25 µg/mL (≈ 0.434 µM) in assay [1]; 0.5 µg/mL (≈ 0.867 µM) in assay [2]; 1 µg/mL (≈ 1.73 µM) in assay [3]; 0.25 µg/mL (≈ 0.434 µM) in assay [4]; 0.25 µg/mL (≈ 0.434 µM) in assay [5]; 0.0156 µg/mL (≈ 0.0271 µM) in [6]. The MIC in assay [7] was 0.0156 µg/mL (≈ 0.0271 µM); in assay [8], 2 µg/mL (≈ 3.47 µM); in assay [9], 32 µg/mL (≈ 55.5 µM); in assay [10], 0.125 µg/mL (≈ 0.217 µM); in assay [11] it was greater than 32 µg/mL; in assay [12], 4 µg/mL (≈ 6.94 µM). Besides, the MIC in [13] was 4 µg/mL (≈ 6.94 µM); in [14], 32 µg/mL (≈ 55.5 µM).

As to `CN(C)[C@@H]1C(O)=C(C(N)=O)C(=O)[C@@]2(O)C(O)=C3C(=O)c4c(O)c(NC(=O)CNc5ccccc5)cc(F)c4C[C@H]3C[C@@H]12`, the MIC in [1] was 2 µg/mL (≈ 3.44 µM); in assay [2], 4 µg/mL (≈ 6.89 µM); in [3], 2 µg/mL (≈ 3.44 µM); in [4] it was 2 µg/mL (≈ 3.44 µM); in assay [5], 2 µg/mL (≈ 3.44 µM); in assay [6], 2 µg/mL (≈ 3.44 µM). Also, the MIC in assay [7] is greater than 4 µg/mL; in assay [8] it was greater than 32 µg/mL; in [9] it was greater than 32 µg/mL; in assay [10], greater than 8 µg/mL; in [11], greater than 32 µg/mL; in [12] it was greater than 32 µg/mL. In addition, the MIC in assay [13] and in [14] was greater than 32 µg/mL in each case.
